≈ marks a conversion by molar mass, not a printed value. Where “and” joins values, the source holds several entries; their conditions need not be identical. Equal entries are not always repeated. Where two headings read alike, the source gives them in different places. Blank lines part the entries; values can stand above or below the compound they belong to.
Assays:
[1] = test system: SCC-9 oral squamous cell carcinoma cell line; assay: MTT anti-proliferation assay in SCC-9; type: cell-based; conditions: for IC50: Homo sapiens, SCC-9, 72 h, read-out: IC50 anti-proliferation activity; for IC50 anti-proliferation activity: SCC-9, MTT, treatment period 72 hr, triplicate
[2] = in vivo; conditions: C57BL/6, mouse, iv, 5 mg/kg
[3] = test system: Cal-27 oral squamous cell carcinoma cell line; assay: MTT anti-proliferation assay in Cal-27; type: cell-based; conditions: for IC50: Homo sapiens, read-out: IC50 anti-proliferation activity; for IC50 anti-proliferation activity: Cal-27, MTT, triplicate
[4] = Caco-2 monolayer apical to basolateral transport; type: in vitro ADME; conditions: human, Caco-2, pH 7.4
[5] = mouse, in vivo, iv
[6] = test system: CYP450 (mouse intestinal S9 fraction); assay: Phase I CYP metabolism of MHNK to HNK in mouse intestinal S9 fraction; type: in vitro ADME, C57BL/6 mouse; conditions: MHNK 5, 1 and 0.5 µM, 60 min
[7] = Oral pharmacokinetics of ME nanosuspension in mice; conditions: for absolute bioavailability (estimated): oral 60 mg/kg ME nanosuspension vs I.V. 5 mg/kg
[8] = Oral pharmacokinetics of ME in corn oil in mice
[9] = I.V. pharmacokinetics of ME nanosuspension in mice
[10] = test system: CYP450 (mouse liver microsomes); assay: Phase I CYP metabolism of MHNK to HNK in mouse liver microsomes; type: in vitro ADME, C57BL/6 mouse; conditions: 0.5 µM MHNK, after 60 min, 37 °C
[11] = test system: Caco-2 cell monolayer; assay: Caco-2 monolayer apical to basolateral transport; type: in vitro ADME; conditions: ME 0.05 mg/mL in HBSS pH 7.4, 37 °C, n=3
[12] = oral 60 mg ME/kg in nanosuspension, mouse whole blood, n=5
[13] = oral 60 mg ME/kg in nanosuspension, n=5
[14] = oral 60 mg ME/kg in corn oil, mouse whole blood, n=5
[15] = oral 60 mg ME/kg in corn oil, n=5
[16] = I.V. 5 mg ME/kg, mouse whole blood, n=5
[17] = C57BL/6, mouse, in vivo, po, 60 mg/kg
[18] = C57BL/6, mouse, in vivo, iv, 5 mg/kg

SMILES: O=c1[nH]cc(F)c(=O)[nH]1 [5-FU, reference compound]
- IC50 anti-proliferation activity [1]: 1.9 ± 0.4 µg/mL (≈ 14.6 µM)
- IC50 anti-proliferation activity ([3]; treatment period 72 hr): 0.4 ± 0.1 µg/mL (≈ 3.08 µM)

SMILES: C=CCc1ccc(O)c(-c2ccc(OC)c(CC=C)c2)c1 [MHNK, 4-O-methylhonokiol]
- IC50 anti-proliferation activity [1]: 5.2 ± 1.3 µg/mL (≈ 18.5 µM)
- IC50 anti-proliferation activity ([3]; treatment period 24 hr): 14.5 ± 0.9 µg/mL (≈ 51.7 µM)
- IC50 anti-proliferation activity ([3]; treatment period 48 hr): 7.7 ± 0.8 µg/mL (≈ 27.5 µM)
- IC50 anti-proliferation activity ([3]; treatment period 72 hr): 5.6 ± 1.4 µg/mL (≈ 20 µM)
- IC50 anti-proliferation activity ([3]; treatment period 96 hr): 3.2 ± 0.3 µg/mL (≈ 11.4 µM)
- HNK formation from MHNK [6]: no HNK detected
- AUC0–24 [7, 12]: 79.9 ± 15.8 ^* hr*ng/mL
- AUC0−∞ [7, 12]: 86.3 ± 15.7 ^* hr*ng/mL
- Cmax [7, 12]: 14.3 ± 6.6 ng/mL
- Tmax [7, 12]: 3.0 ± 2.0 h
- Half-life [7, 13]: 7.1 ± 2.5 h
- MRT0–24 [7, 13]: 5.9 ± 0.7 h
- absolute bioavailability (estimated) [7]: 1.1% and < 2%
- AUC0–24 [8, 14]: 9.6 ± 4.0 ng·h/mL
- AUC0−∞ [8, 14]: 10.8 ± 3.0 ng·h/mL
- Cmax [8, 14]: 3.7 ± 0.9 ng/mL
- Tmax [8, 14]: 1.3 ± 0.6 h
- Half-life [8, 15]: 1.4 ± 0.6 h
- MRT0–24 [8, 15]: 1.8 ± 0.3 h
- AUC0–24 [9, 16]: 623.2 ± 358.8 ng·h/mL
- AUC0−∞ [9, 16]: 631.1 ± 360.0 ng·h/mL
- Cmax [9, 16]: 824.3 ± 309.5 ng/mL
- Half-life [9, 16]: 3 h and 2.9 ± 2.1 h
- CL ([9]; I.V. 5 mg ME/kg, n=5): 33.3 ± 26.7 mL/min/kg
- MRT0–24 ([9]; I.V. 5 mg ME/kg, n=5): 1.5 ± 0.6 h
- V ([9]; I.V. 5 mg ME/kg, n=5): 5.5 ± 1.7 L/kg
- MHNK metabolized to HNK [10]: 51 ± 23.9%
- apical to basolateral permeability (Pab) [11]: 7.7 ± 0.4 × 10^−6 cm/sec

SMILES: C=CCc1ccc(O)c(-c2cc(CC=C)ccc2O)c1 [MGN, magnolol]
- IC50 [1]: 7.9 ± 0.4 µg/mL (≈ 29.7 µM)
- IC50 ([3]; CAL-27, 24 h): 20.7 ± 1.8 µg/mL (≈ 77.7 µM)
- IC50 ([3]; CAL-27, 48 h): 11.9 ± 0.6 µg/mL (≈ 44.7 µM)
- IC50 ([3]; CAL-27, 72 h): 5.1 ± 0.6 µg/mL (≈ 19.1 µM)
- IC50 ([3]; CAL-27, 96 h): 4 ± 0.8 µg/mL (≈ 15 µM)
- AUC(0-inf) [7, 17]: 182 ± 28.8 ng·h/mL
- AUC(0-t) [7, 17]: 176 ± 27.3 ng·h/mL
- Cmax [7, 17]: 29.1 ± 10.4 ng/mL
- Half-life [7, 17]: 5 ± 1.5 h
- MRT last [7, 17]: 5.1 ± 0.6 h
- Tmax [7, 17]: 2.2 ± 1.5 h
- absolute bioavailability (estimated) [7]: < 2%
- AUC(0-inf) [8, 17]: 37.8 ± 16.5 ng·h/mL
- AUC(0-t) [8, 17]: 23.1 ± 5.3 ng·h/mL
- Cmax [8, 17]: 9.4 ± 3.3 ng/mL
- Half-life [8, 17]: 3.8 ± 2.3 h
- MRT last [8, 17]: 2.3 ± 0.6 h
- Tmax [8, 17]: 0.9 ± 0.7 h
- AUC(0-inf) [9, 18]: 1230 ± 651 ng·h/mL
- AUC(0-t) [9, 18]: 1230 ± 650 ng·h/mL
- Cmax [9, 18]: 2280 ± 700 ng/mL
- Half-life [9, 18]: 1 ± 0.3 h
- MRT last [9, 18]: 0.8 ± 0.5 h
- clearance [9, 18]: 13.3 mL/min/kg
- V ([9]; I.V. 5 mg ME/kg, n=5): 1.0 ± 0.4 L/kg

Further lines, results first:

- IC50 [1]: 5.5 ± 0.6 µg/mL (≈ 20.7 µM)
- AUC(0-inf) [2]: 1150 ± 719 ng·h/mL
- AUC(0-t) [2]: 1150 ± 719 ng·h/mL
- Cmax [2]: 2400 ± 1040 ng/mL
- Half-life [2]: 0.7 ± 0.04 h
- MRT last [2]: 0.6 ± 0.1 h
- clearance [2]: 20 mL/min/kg
- IC50 ([3]; CAL-27, 24 h): 20.8 ± 1.3 µg/mL (≈ 78.1 µM)
- IC50 ([3]; CAL-27, 48 h): 12.2 ± 1 µg/mL (≈ 45.8 µM)
- IC50 ([3]; CAL-27, 72 h): 6.6 ± 0.6 µg/mL (≈ 24.8 µM)
- IC50 ([3]; CAL-27, 96 h): 4.2 ± 0.4 µg/mL (≈ 15.8 µM)
- Papp A→B at 4 h, 0.05 mg/mL [4]: 13.4 ×10⁻⁶ cm/s
SMILES: C=CCc1ccc(O)c(-c2ccc(O)c(CC=C)c2)c1 [HNK, honokiol]

- Half-life [5]: 2.2 ± 0.7 h
- Tmax [5]: 6 ± 6 min
SMILES: C=CCc1ccc(O)c(-c2cc(CC=C)ccc2OS(=O)(=O)O)c1 [MGN_Sulfate]
